Laboratory results reported in PubChem BioAssay AID2060506 (Molecular Pharmacology Branch, DTP, NCI, 2025).
Values joined by “and” are separate entries in the source; they are usually repeats but may differ in a detail not shown here. Equal values may be shown once.

System: 598228-144-R-J1-PDC complex spheroid viability
Assay: Anticancer human tumor 598228-144-R-J1-PDC patient-derived serous endometrial adenocarcinoma cell line growth inhibition [GQUAD]
Details: for viability, T/C: stronger effect = lower value
Excerpt: DNA G-quadruplex Stabilizer Agents in Combinations in Complex Spheroids
A high-throughput screen of multi-cell type tumor spheroids was designed to identify active combinations of DNA G-quadruplex stabilizer agents and targeted small molecules. Complex spheroids include a stromal component modeled by human endothelial cells (HUVEC) and fibroblasts modeled by human mesenchymal stem cells (MSCs). The concentration ranges selected for each drug and investigational agent were based upon clinically achievable concentrations if the clinical Cmax of the agent was known.
Compounds. The drugs and investigational agents: pidnarulex (CX-5461; NSC782164), APTO-253 (NSC789042), BRACO-19 (NSC847499), peposertib (NSC802822), ceralasertib (NSC780249), elimusertib (NSC800525), camonsertib (NSC841442), AZD-1390 (NSC803789), olaparib (NSC753686), talazoparib (NSC767125), ART-558 (NSC835418), sotorasib (NSC818433), MRTX-1133 (NSC836407), SN-38 (NSC673596), topotecan (NSC609699), etoposide (NSC141540), doxorubicin (NSC123127), gemcitabine (NSC613327), 5-fluorouracil (NSC19893), paclitaxel (NSC125973), vemurafenib (NSC761431), panobinostat (NSC761190), R-306465 (JNJ-16241199; NSC773264), adavosertib (NSC754352), TP-3654 (NSC805149), carboplatin (NSC241240), KSQ-4279 (NSC840948), and staurosporine (NSC755774) were obtained from the National Cancer Institute (NCI) Developmental Therapeutics Program Chemical Repository (34). The FDA-approved anticancer drug set is available from the NCI Developmental Therapeutics Program. […] The stock solutions were prepared in dimethyl sulfoxide (DMSO, Sigma-Aldrich, St. Louis, MO, cat. D2650) at 800-fold the tested concentration and stored at -70 degrees C prior to their use. All drugs and investigational agents were tested over a range starting from a high concentration at or near the clinical Cmax and decreasing in half-log increments. If the clinical Cmax for an agent had not been determined, the highest concentration tested was 10 microM.
2.3 Cell Culture. All cells were maintained in an incubator at 37 degrees C and 5% CO2 with 95% humidity. The PDC lines were cultured according to standard operating procedures established by the NCI PDMR. All PDCs were thawed and cultured in Matrigel-coated flasks prepared with a working solution of 1X Ham's F-12 nutrient mix, without supplementation (Invitrogen, cat. 11765054), 100 U/mL penicillin-streptomycin (Invitrogen, cat. 15140122), and 2.5% Matrigel (Corning Inc., cat. 354248) for the first three passages. The 857933-349-R-J2-PDC line was cultured in 6C/Colon 1B media, which includes advanced DMEM/F-12 (Thermo Fisher Scientific, cat. 12634028), 10 mM HEPES (Thermo Fisher Scientific, cat. 15630080), 1X GlutaMAX supplement (Thermo Fisher Scientific, cat. 35050061), 0.1 mg/mL primocin (InvivoGen, cat. ant-pm-2), 10% defined fetal bovine serum, heat inactivated (HyClone Laboratories Inc., cat. SH30070.03HI), 50% L-WRN conditioned media (ATCC, cat. CRL-3276), 1.25 mM N-Acetyl-L-cysteine (Sigma-Aldrich, cat. A9165), 10 mM nicotinamide (Sigma-Aldrich, cat. N0636), 1X B-27 supplement (Thermo Fisher Scientific, cat. 17504044), 1X N-2 supplement (Thermo Fisher Scientific, cat. 17502048), 10 microM Y-27632 dihydrochloride (Tocris Bioscience, cat. 1254), and 50 ng/mL human EGF recombinant protein (Thermo Fisher Scientific, cat. PHG0311). The 485176-168-R4-J1-PDC line was cultured in Panc media, which includes all 6C/Colon 1B media components plus 100 ng/mL human FGF-10 (Thermo Fisher Scientific, cat. 100-26), 500 nM SB-431542 (Selleckchem, cat. S1067), and gastrin (Tocris, cat. 3006).
[…]
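Further: spheroids exposed to the agents for one week before reading.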
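Wherever viability, T/C is given: percent of vehicle DMSO control viability so 100% = untreated growth.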

With `O=C(NO)c1cnc(N2CCN(S(=O)(=O)c3ccc4ccccc4c3)CC2)nc1` the viability, T/C (compound 0.0316 µM) was 112% and 98.7% and 110%, the viability, T/C (compound 0.1 µM) was 49.4% and 40.7% and 59.1% and the viability, T/C (compound 0.316 µM) was 26.3% and 24.7% and 34%. For the same compound, the viability, T/C (compound 1 µM) was 0.49% and 0.43% and 0.75%, the viability, T/C (compound 3.16 µM) was 0.37% and 0.43% and 0.25% and the viability, T/C (compound 10 µM) was 0.35% and 0.28% and 0.23%. The IC50 (curve of compound) was 106 nM and 88 nM and 148 nM.

For `CC(C)n1c(=O)n(C)c2cnc3cc(F)c(-c4ccc(OCCCN5CCCCC5)nc4)cc3c21`, the viability, T/C (compound 0.0316 µM) was 109% and 90.8% and 106%, the viability, T/C (compound 0.1 µM) was 91.9% and 85.2% and 84.2% and the viability, T/C (compound 0.316 µM) was 101% and 92.4% and 109%. For the same compound, the viability, T/C (compound 1 µM) was 115% and 111% and 96.7%, the viability, T/C (compound 3.16 µM) was 94.2% and 74.5% and 67.8% and the viability, T/C (compound 10 µM) was 60.8% and 56.7% and 68.5%. It also gave an IC50 (curve of compound) greater than 10000 nM.

`Cn1ncnc1[C@H]1c2n[nH]c(=O)c3cc(F)cc(c23)N[C@@H]1c1ccc(F)cc1` + Cc1cnc(CNC(=O)c2c(=O)c3ccc(N4CCCN(C)CC4)nc3n3c2sc2ccccc23)cn1 showed an IC50 (curve of first compound, second compound 0.0316 µM) greater than 316 nM, an IC50 (curve of first compound, second compound 0.1 µM) greater than 316 nM and an IC50 (curve of first compound, second compound 0.316 µM) greater than 316 nM. For the same compound, the IC50 (curve of first compound, second compound 1 µM) was greater than 316 nM, the IC50 (curve of first compound, second compound 3.16 µM) was 193 nM and the IC50 (curve of first compound, second compound 10 µM) was 0.999 nM. For the same compound, the viability, T/C (second compound 0.0316 µM, first compound 0.000999 µM) was 81.7%, the viability, T/C (second compound 0.0316 µM, first compound 0.00316 µM) was 94% and the viability, T/C (second compound 0.0316 µM, first compound 0.00999 µM) was 87.3%. The viability, T/C (second compound 0.0316 µM, first compound 0.0316 µM) was 68.3%, the viability, T/C (second compound 0.0316 µM, first compound 0.0999 µM) was 74.4% and the viability, T/C (second compound 0.0316 µM, first compound 0.316 µM) was 54.7%. It also gave a viability, T/C (second compound 0.1 µM, first compound 0.000999 µM) of 79.1%, a viability, T/C (second compound 0.1 µM, first compound 0.00316 µM) of 70.3% and a viability, T/C (second compound 0.1 µM, first compound 0.00999 µM) of 61.2%. It also gave a viability, T/C (second compound 0.1 µM, first compound 0.0316 µM) of 56.4%, a viability, T/C (second compound 0.1 µM, first compound 0.0999 µM) of 60.3% and a viability, T/C (second compound 0.1 µM, first compound 0.316 µM) of 63.1%. It also gave a viability, T/C (second compound 0.316 µM, first compound 0.000999 µM) of 66.3%, a viability, T/C (second compound 0.316 µM, first compound 0.00316 µM) of 76.4% and a viability, T/C (second compound 0.316 µM, first compound 0.00999 µM) of 56.8%. It also gave a viability, T/C (second compound 0.316 µM, first compound 0.0316 µM) of 55.9%, a viability, T/C (second compound 0.316 µM, first compound 0.0999 µM) of 59% and a viability, T/C (second compound 0.316 µM, first compound 0.316 µM) of 55.1%. It also gave a viability, T/C (second compound 1 µM, first compound 0.000999 µM) of 55.5%, a viability, T/C (second compound 1 µM, first compound 0.00316 µM) of 54.3% and a viability, T/C (second compound 1 µM, first compound 0.00999 µM) of 56%. The viability, T/C (second compound 1 µM, first compound 0.0316 µM) was 64.2%, the viability, T/C (second compound 1 µM, first compound 0.0999 µM) was 59.3% and the viability, T/C (second compound 1 µM, first compound 0.316 µM) was 64.1%. For the same compound, the viability, T/C (second compound 3.16 µM, first compound 0.000999 µM) was 57.5%, the viability, T/C (second compound 3.16 µM, first compound 0.00316 µM) was 53.8% and the viability, T/C (second compound 3.16 µM, first compound 0.00999 µM) was 52.9%. For the same compound, the viability, T/C (second compound 3.16 µM, first compound 0.0316 µM) was 58.5%, the viability, T/C (second compound 3.16 µM, first compound 0.0999 µM) was 57% and the viability, T/C (second compound 3.16 µM, first compound 0.316 µM) was 42%. For the same compound, the viability, T/C (second compound 10 µM, first compound 0.000999 µM) was 40.5%, the viability, T/C (second compound 10 µM, first compound 0.00316 µM) was 45.7% and the viability, T/C (second compound 10 µM, first compound 0.00999 µM) was 59.1%. It also gave a viability, T/C (second compound 10 µM, first compound 0.0316 µM) of 38.1%, a viability, T/C (second compound 10 µM, first compound 0.0999 µM) of 51.7% and a viability, T/C (second compound 10 µM, first compound 0.316 µM) of 32.5%.

With `CC(=O)O[C@H]1C(=O)[C@@]2(C)[C@H]([C@H](OC(=O)c3ccccc3)[C@]3(O)C[C@H](OC(=O)[C@H](O)[C@@H](NC(=O)c4ccccc4)c4ccccc4)C(C)=C1C3(C)C)[C@]1(OC(C)=O)CO[C@@H]1C[C@@H]2O` the viability, T/C (compound 0.0316 µM) was 57.9% and 47.5% and 53%, the viability, T/C (compound 0.1 µM) was 41.1% and 46.1% and 48.6% and the viability, T/C (compound 0.316 µM) was 52.3% and 37.7% and 45%. The viability, T/C (compound 1 µM) was 42.3% and 36.8% and 38.9%, the viability, T/C (compound 3.16 µM) was 47.5% (2×) and 40.5% and the viability, T/C (compound 10 µM) was 49.1% and 43% and 39.1%. For the same compound, the IC50 (curve of compound) was 80.4 nM and < 31.6 nM and 50.4 nM.

`Cc1cnc(CNC(=O)c2c(=O)c3ccc(N4CCCN(C)CC4)nc3n3c2sc2ccccc23)cn1` was tested, and the viability, T/C (compound 0.1 µM) was 73.5% [middle of 12 runs], the viability, T/C (compound 1 µM) was 65.9% [middle of 12 runs] and the viability, T/C (compound 3.16 µM) was 56.4% [middle of 12 runs].
